From US11492325B2, “Compounds as inhibitors of sodium channels” (Human BioMolecular Research Institute, priority 2016, dated 2022)
Read-outs that look alike come from different tables or passages of the source.

What was measured:
[1] = system: normal human induced pluripotent stem cell (hiPSC) cardiomyocyte; details: for WT-Fold Prolongation: APD
[2] = system: cardiomyocytes derived from hiPSCs from a LQTS3 patient
[3] = WT cardiomyocytes, AP prolongation
[4] = LQT-3 cardiomyocytes, AP shortening

Row | Molecule | WT-Fold Prolongation ([1]; normal hiPSC cardiomyocytes) | Cessation of Beating ([1]; normal hiPSC cardiomyocytes) | LQT-Cessation Dose ([2]; LQT3 cardiomyocytes) | LQT-Fold Shortening ([2]; LQT3 cardiomyocytes) | WT-Prolongation Dose ([1]; normal hiPSC cardiomyocytes) | further results
1 | CCCNC(C)COc1c(C)cccc1C (centres unmarked) [Compound 38, 1-(2,6-dimethylphenoxy)-N-propylpropan-2-amine] | 4.584 | 200 µM | 200 µM | 1.19 |  | WT-EAD Dose ([1]; normal hiPSC cardiomyocytes): 66 µM
2 | Cc1cccc(C)c1OCC(C)NCCc1ccccc1 (centres unmarked) [Compound 44, 1-(2,6-dimethylphenoxy)-N-(2-phenylethyl)propan-2-amine] | 2.698 | 133 µM | 7.4 µM | 1.7 |  | WT-EAD Dose ([1]; normal hiPSC cardiomyocytes): 22 µM
3 | COc1ccc(C(N)COc2c(C)cccc2C)cc1 (centres unmarked) [Compound 15, 2-(2,6-dimethylphenoxy)-1-(4-methoxyphenyl)ethanamine] | None | 66 µM | 66 µM | 1.42 | None | 
4 | Cc1ccc(OCC(N)C2CC2)cc1C.Cl (centres unmarked) [Compound 77] | None | 66 µM | 200 µM | 1.18 | None | 
5 | CNC(COc1cccc(C)c1C)c1ccccc1 (centres unmarked) [Compound 34, 2-(2,3-dimethylphenoxy)-N-methyl-1-phenylethanamine] | None | 133 µM | 66 µM | 1.29 | None | 
6 | Cc1cccc(C)c1OCC(C)Nc1ccccc1 (centres unmarked) [Compound 43, 1-(2,6-dimethylphenoxy)-N-phenylpropan-2-amine] | None | None | None | None | None | LQT-Shortening Dose ([2]; LQT3 cardiomyocytes): None
7 | Cc1cccc(C)c1OCC(C)NCc1ccccc1 (centres unmarked) [Compound 42, 1-(2,6-dimethylphenoxy)-N-benzylpropan-2-amine] | 1.684 |  |  | 1.26 |  | Cessation of Beating ([1]; human, 5 min): 200 µM; LQT-Cessation Dose ([2]; human, 5 min): 133 µM
8 | NC(COc1cncc(C(F)(F)F)c1)c1ccccc1 (centres unmarked) [Compound 116] |  |  |  |  |  | WT-EC50 (μM) Prolongation [1, 3]: Does Not Prolong AP; LQT-Fold Shortening ([2]; LQT-3 cardiomyocytes): 1.422; LQT-EC50 (μM) Shortening [2, 4]: Shortens
9 | 2-(2,6-dimethylphenoxy)-1-(4-methoxyphenyl)ethanamine [Compound 14] | None | None | None | None | None | LQT-IC50 (uM)-Shortening ([2]; APD shortening, LQT3 cardiomyocytes): None; LQT-Shortening Dose ([2]; LQT3 cardiomyocytes): None
10 | OCCNC(COc1cc(C(F)(F)F)cc(C(F)(F)F)c1)c1ccccc1 (centres unmarked) [Compound 93] | None | 66 µM | 22 µM | 1.5 | None | 
11 | Cc1ccc(OCC(N)c2ccccc2)cc1C.Cl (centres unmarked) [Compound 75] | None | 66 µM | 66 µM | 1.370 | None | 
12 | Cc1cccc(C)c1OCC(=NOCc1ccccc1)C1CC1 [Compound 46] | None |  |  | 1.67 | None | Cessation of Beating [1]: None; LQT-Cessation Dose [2]: None
13 | NC(COc1ccnc(C(F)(F)F)c1)c1ccccc1 (centres unmarked) [Compound 128] |  |  |  |  |  | WT-EC50 (μM) Prolongation [1, 3]: Does Not Prolong AP; WT-Cessation Dose (μM) ([1]; WT cardiomyocytes, cessation of beating): No cessation of beating; LQT-Fold Shortening ([2]; LQT-3 cardiomyocytes): 1.226; LQT-EC50 (μM) Shortening [2, 4]: Shortens
14 | NC(COc1ccccn1)c1ccccc1 (centres unmarked) [Compound 20, 1-phenyl-2-(pyridin-2-yloxy)ethanamine] | None | None | None | None | None | WT-Cessation Dose ([1]; pyridyl derivatives): No cessation of beating; WT-EC50 (μM) Prolongation ([1]; pyridyl derivatives): Does Not Prolong AP; LQT-Shortening Dose ([2]; LQT3 cardiomyocytes): None; LQT-EC50 (μM) Shortening ([2]; pyridyl derivatives): Does Not Shorten; LQT-Fold Shortening ([2]; pyridyl derivatives): Does Not Shorten; LQT-Shortening Dose ([2]; pyridyl derivatives): Does Not Shorten
15 | CC(=O)NC(C)COc1c(C)cccc1C (centres unmarked) [Compound 53] | None | None | None | None | None | LQT-Shortening Dose ([2]; LQT3 cardiomyocytes): None
16 | Cc1cccc(Cl)c1OCC(N)C1CCCCC1.Cl (centres unmarked) [Compound 76] | None | 66 µM | 66 µM | 1.244 | None | 
17 | CCCNC(COc1cccc(C)c1C)c1ccccc1 (centres unmarked) [Compound 31, 2-(2,3-dimethylphenoxy)-N-propyl-1-phenylethanamine] | None | None | 133 µM | None | None | LQT-Shortening Dose ([2]; LQT3 cardiomyocytes): None
